Test results taken from patent US20240043401A1, “SALT FORM OF TETRA-SUBSTITUTED OLEFIN COMPOUND, CRYSTAL, AND PREPARATION METHOD THEREFOR” (CHIA TAI TIANQING PHARMACEUTICAL GROUP CO., LTD., priority 2020, published 2024).
In brackets after ≈: the same amount, converted by molar mass.

Legend:
[1] = Solubility of crystalline forms (supersaturated suspension shaken at 37° C. for 24 h, HPLC-UV); type: physicochemical; conditions: thermodynamic from solid, 800 rpm
Experimental: 1-2 mg of a test sample was taken and placed in a semi-automatic filter vial, and 450 μL of purified water or FeSSIF simulated fluid (fed state simulated intestinal fluid) was added to give a supersaturated suspension. The sample was vortexed for at least 2 min. The vial was placed on a plate shaker and shaken at 37° C. at 800 rpm for 24 h. After centrifugal filtration, the sample was subjected to HPLC-UV linear quantitative analysis for concentration.
FeSSIF (fed state simulated intestinal fluid): an aqueous buffer solution comprising 0.282% (w/v) lecithin, 0.806% (w/v) sodium taurocholate, 0.865% (w/v) acetic acid, 1.52% (w/v) potassium chloride, with a pH of […]

[2] = In vivo pharmacokinetic study after a single oral dose; conditions: dog; female beagle dogs, single oral dose 100 mg/kg at 1 h after feeding, plasma, mean
Experimental: This experiment was intended to evaluate the pharmacokinetic behavior of the compound after a single intragastric administration and to investigate bioavailability after intragastric administration. Two female beagle dogs were each given a single oral dose of the crystalline form I of the compound of formula (II) at 100 mg/kg at 1 h after feeding, and plasma samples were taken at 0.0833 (5 min), 0.25 (15 min), 0.5 (30 min), 1, 2, 4, 6, 8, 12, and 24 h after administration and assayed for the concentration of the test substance by LC-MS/MS.

[3] = Forced degradation experiment; type: physicochemical
Experimental: Control group: 20 mg of a sample was weighed out, a proper amount of diluent (acetonitrile:water=1:1, v/v) was added to dissolve the sample, and then the solution was brought to a volume of 100 mL with the diluent (acetonitrile:water=1:1, v/v). A proper amount of the solution was taken for analysis. Acidic degradation: 20 mg of the sample was weighed out, and 1 mL of a 1 M aqueous HCl solution was added. After sitting at room temperature for 24 h, the mixture was neutralized with 1 mL of a 1 M aqueous NaOH solution. The solution was brought to a volume of 100 mL with the diluent (acetonitrile:water=1:1, v/v). A proper amount of the solution was taken for analysis. Basic degradation: 20 mg of the sample was weighed out, and 1 mL of a 1 M aqueous NaOH solution was added. After sitting at room temperature for 24 h, the mixture was neutralized with 1 mL of a 1 M aqueous HCl solution. The solution was brought to a volume of 100 mL with the diluent (acetonitrile:water=1:1, v/v). A proper amount of the solution was taken for analysis. Oxidative degradation: 20 mg of the sample was weighed out, 1 mL of a 3% aqueous hydrogen peroxide solution was added, and the mixture was left at room temperature for 24 h. The solution was brought to a volume of 100 mL with the diluent (acetonitrile:water=1:1, v/v). A proper amount of the solution was taken for analysis.

[4] = Dynamic vapor sorption (DVS) hygroscopicity; type: physicochemical; conditions: from the DVS patterns, 25° C.
Experimental: 1.4. Dynamic Vapor Sorption (DVS) Method of the Present Application
Instrument model: DVS Intrinsic instrument from SMS (Surface Measurement Systems) Inc.
Temperature: 25° C.; sample amount: 10-30 mg; protective gas and flow: N2, 200 mL/min; dm/dt: 0.002%/min; minimum dm/dt equilibration time: 10 min; maximum equilibration time: 180 min; RH range: 0% RH-95% RH-0% RH; RH gradient: 10% (90% RH-0% RH-90% RH), 5% (95% RH-90% RH and 90% RH-95% RH).

[5] = oral administration; cited from earlier work
breast cancer patients = conditions: intramuscular injection; cited from earlier work
[6] = Vehicle: FeSSIF (fed state simulated intestinal fluid)

`CC/C(=C(/c1ccc(OCCNC/C=C/C(=O)N(C)C)nc1)c1[nH]c2ccccc2c1Cl)c1ccccc1.Cl` [listing 1 of 2 here] showed a solubility at 24 h ([1]; purified water, Vehicle: Water) of 237 µg/mL, a solubility at 24 h [1, 6] of 1900 µg/mL and an AUC(0-t) [2] of 229 µM·h. The Cmax [2] was 14 µM, the Tmax [2] was 6 h and the half-life [2] was 14.9 h. The Total impurities ([3]; Acidic degradation: 1 M aqueous HCl, room temperature, 24 h, listed as crystalline form I of the compound of formula (II)) was 0.34%, the Total impurities ([3]; Basic degradation: 1 M aqueous NaOH, room temperature, 24 h, listed as crystalline form I of the compound of formula (II)) was 0.35% and the Total impurities ([3]; Not degraded (control group, dissolved in acetonitrile:water 1:1), listed as crystalline form I of the compound of formula (II)) was 0.34%. The Total impurities ([3]; Oxidative degradation: 3% aqueous hydrogen peroxide, room temperature, 24 h, listed as crystalline form I of the compound of formula (II)) was 0.92% and the Hygroscopicity [4] was “lower hygroscopicity than the amorphous form”.

In the case of `CC/C(=C(/c1ccc(OCCNC/C=C/C(=O)N(C)C)nc1)c1[nH]c2ccccc2c1Cl)c1ccccc1.O=C(O)/C=C/C(=O)O`, the solubility at 24 h [1, 6] is reported as 1950 µg/mL.

In the case of `C[C@]12CC[C@@H]3c4ccc(O)cc4C[C@@H](CCCCCCCCC[S+]([O-])CCCC(F)(F)C(F)(F)F)[C@H]3[C@@H]1CC[C@@H]2O` (stereo partly drawn) [fulvestrant], the Bioavailability [5] is given as “zero” and the Clinical response rate (breast cancer patients) is given as “about 50%”.

In the case of `CC/C(=C(/c1ccc(OCCNC/C=C/C(=O)N(C)C)nc1)c1[nH]c2ccccc2c1Cl)c1ccccc1.Cl` [listing 2 of 2 here], the Total impurities ([3]; Acidic degradation: 1 M aqueous HCl, room temperature, 24 h) is reported as 0.56%, the Total impurities ([3]; Basic degradation: 1 M aqueous NaOH, room temperature, 24 h) is reported as 0.54% and the Total impurities ([3]; Not degraded (control group, dissolved in acetonitrile:water 1:1)) is reported as 0.60%. The Total impurities ([3]; Oxidative degradation: 3% aqueous hydrogen peroxide, room temperature, 24 h) was 3.5%.

Molecule `Br.CC/C(=C(/c1ccc(OCCNC/C=C/C(=O)N(C)C)nc1)c1[nH]c2ccccc2c1Cl)c1ccccc1` has a solubility at 24 h [1, 6] of 1370 µg/mL.

`CC/C(=C(/c1ccc(OCCNC/C=C/C(=O)N(C)C)nc1)c1[nH]c2ccccc2c1Cl)c1ccccc1` showed a solubility at 24 h ([1]; purified water, Vehicle: Water) of under 0.8 µg/mL and a solubility at 24 h [1, 6] of 316 µg/mL (≈ 597 µM).
